Values of other authors in patent US20110092493A1, “Dose-controlled transdermal promethazine compositions and methods of use” (priority 2008, published 2011).
Counter-ions that a name gives are not always drawn. Like-named read-outs stand apart in the source and are kept apart here.

How the values were obtained:
[1] = following intramuscular injection
[2] = 50 mg applied to the wrist in topical pluronic lecithin organogel, 15 healthy volunteers
[3] = oral administration
[4] = not given; remark: listed apart in the source
[5] = not given; remark: listed apart in the source
[6] = both 50 mg suppository treatments (generic, brand-name) vs oral syrup (50 mg)
[7] = overall, most common adverse events

CC(CN1c2ccccc2Sc2ccccc21)N(C)C (centres unmarked) [promethazine hydrochloride]
differences in AUC0-24 (50 mg suppository treatments vs oral syrup (50 mg)): no significant differences | maximum promethazine concentration compared with oral syrup [6]: lower | time to maximum promethazine concentration compared with oral syrup [6]: longer

CC(CN1c2ccccc2Sc2ccccc21)N(C)C (centres unmarked) [promethazine]
plasma levels associated with adverse effects [1]: 48 ng/mL | drowsiness, % of subjects [2]: 73% | sedation, % of subjects [2]: 50% | fraction of dose absorbed ([3]; on average): 88% | absolute bioavailability ([3]; limited by first-pass clearance): 25% | adverse event: somnolence ([4]; 25 mg suppository): 5% | adverse event: somnolence ([4]; 50 mg oral): 22% | adverse event: somnolence ([4]; 50 mg suppository): 17% | adverse event: headache [4, 7]: 28% | adverse event: somnolence [4, 7]: 35% | coefficient of variation for the area under the plasma concentration-versus-time curve (AUC) ([5]; 50 mg suppository): greater than 84% | mean AUC from 0 to 24 hours (AUC0-24) ([5]; 50 mg suppository): 168 ng·h/mL | coefficient of variation for the area under the plasma concentration-versus-time curve (AUC) ([5]; oral syrup (50 mg)): greater than 84% | mean AUC from 0 to 24 hours (AUC0-24) ([5]; oral syrup (50 mg)): 268 ng·h/mL
